Results from patent US5547962A, “5-amino-8-methyl-7-pyrrolidinylquinoline-3-carboxylic acid derivative” (priority 1993, dated 1996).
Values after ≈ are worked out from the molar mass of the structure shown. “Also recorded” adds a separate entry of the source. Read-outs that look alike come from different tables or passages of the source.

Assays:
CHL cells [1] = assay: Chromosomal aberration test with a Chinese hamster lung cell line (CHL); format: cell-based
Experimental: The chromosomal aberration test was conducted with a Chinese hamster lung cell line (CHL). 2-(2-Furyl)-3-(5-nitro-2-furyl)acrylamide was used as a positive control. Cells treated with the test compounds were cultured for 6 h at 37° C. in 5% CO2 -humidified air. Following the 6 h treatment the cells were washed. Fresh medium was added to the washed cells and they were cultured for a further 18 h. Colcemide was added to the cultures 2 h before the fixation of chromosome preparation, in order to collect metaphase cells.

[2] = test system: polychromatic erythrocytes (PCEs); assay: Micronucleus test, bone marrow of mice; format: in vivo, BDF 1 mice; details: percent of the number of MNPCEs per 1,000 PCEs; 250 mg/kg i.p., 24 h
Experimental: Nine-week-old male BDF 1 mice were used in this test. The test compounds were injected intraperitoneally with a dose of 250 mg/kg. After 24 h mice were sacrificed and the bone marrow of the femur was collected. Bone marrow smears were fixed on the slides with methanol and stained with Giemsa according to the usual method. For each animal, the number of micronucleated polychromatic erythrocytes (MNPCEs) per 1,000 polychromatic erythrocytes (PCEs) was counted under the microscope. Cyclophosphamide was used as a positive control.

Male Hartley guinea pigs = format: in vivo; details: 10 mg/kg i.v.; for Phototoxicity: number of animals with erythemas/number of animals tested: UVA 90 minutes, 24 h after irradiation; for phototoxicity, in words: UVA
Experimental: Male Hartley guinea pigs were intravenously administered test compounds at a dose of 10 mg/kg, and immediately exposed to UVA on their backs for 90 minutes.

S. aureus FDA 209P JC-1 = assay: Antibacterial activity, MIC by agar dilution; format: cell-based; details: Staphylococcus aureus, FDA209P; laboratory standard strain, gram +
Source text: (§1) The strains employed were as follows:
(§2) Staphylococcus aureus (S. aureus)

S. aureus HPC292 = assay: Antibacterial activity, MIC by agar dilution; format: cell-based; details: Staphylococcus aureus, clinically isolated strain, gram +
Source text: as §1, §2

S. aureus HPC308 = assay: Antibacterial activity, MIC by agar dilution; format: cell-based; details: Staphylococcus aureus, clinically isolated strain, gram +
Source text: as §1, §2

S. aureus HPC527 = assay: Antibacterial activity, MIC by agar dilution; format: cell-based; details: Staphylococcus aureus, clinically isolated strain, gram +
Source text: as §1, §2

E. coli NIHJ JC-2 = assay: Antibacterial activity, MIC by agar dilution; format: cell-based; details: Escherichia coli, NIHJJC2; laboratory standard strain, gram -
Source text: as §1
Escherichia coli (E. coli)

K. pneumoniae HNR828 = assay: Antibacterial activity, MIC by agar dilution; format: cell-based; details: Klebsiella pneumoniae, clinically isolated strain, gram -
Source text: as §1
(§3) Klebsiella pneumoniae (K. pneumoniae)

K. pneumoniae HNR858 = assay: Antibacterial activity, MIC by agar dilution; format: cell-based; details: Klebsiella pneumoniae, clinically isolated strain, gram -
Source text: as §1, §3

K. pneumoniae HNR869 = assay: Antibacterial activity, MIC by agar dilution; format: cell-based; details: Klebsiella pneumoniae, clinically isolated strain, gram -
Source text: as §1, §3

K. pneumoniae PCI-602 = assay: Antibacterial activity, MIC by agar dilution; format: cell-based; details: Klebsiella pneumoniae, PCI602; laboratory standard strain, gram -
Source text: as §1, §3

S. marcescens HNR1544 = assay: Antibacterial activity, MIC by agar dilution; format: cell-based; details: Serratia marcescens, clinically isolated strain, gram -
Source text: as §1
(§4) Serratia marcescens (S. marcescens)

S. marcescens HNR1767 = assay: Antibacterial activity, MIC by agar dilution; format: cell-based; details: Serratia marcescens, clinically isolated strain, gram -
Source text: as §1, §4

S. marcescens HNR1792 = assay: Antibacterial activity, MIC by agar dilution; format: cell-based; details: Serratia marcescens, clinically isolated strain, gram -
Source text: as §1, §4

S. marcescens IAM 1184 = assay: Antibacterial activity, MIC by agar dilution; format: cell-based; details: Serratia marcescens, IAM1184; laboratory standard strain, gram -
Source text: as §1, §4

E. cloacae 963 = assay: Antibacterial activity, MIC by agar dilution; format: cell-based; details: Enterobacter cloacae, laboratory standard strain, gram -
Source text: as §1
(§5) Enterobacter cloacae (E. cloacae)

E. cloacae HNR1939 = assay: Antibacterial activity, MIC by agar dilution; format: cell-based; details: Enterobacter cloacae, clinically isolated strain, gram -
Source text: as §1, §5

E. cloacae HNR1941 = assay: Antibacterial activity, MIC by agar dilution; format: cell-based; details: Enterobacter cloacae, clinically isolated strain, gram -
Source text: as §1, §5

E. cloacae HNR1946 = assay: Antibacterial activity, MIC by agar dilution; format: cell-based; details: Enterobacter cloacae, clinically isolated strain, gram -
Source text: as §1, §5

E. faecalis HPC948 = assay: Antibacterial activity, MIC by agar dilution; format: cell-based; details: Enterococcus faecalis, clinically isolated strain, gram +
Source text: as §1
(§6) Enterococcus faecalis (E. faecalis)

E. faecalis HPC975 = assay: Antibacterial activity, MIC by agar dilution; format: cell-based; details: Enterococcus faecalis, clinically isolated strain, gram +
Source text: as §1, §6

E. faecalis HPC984 = assay: Antibacterial activity, MIC by agar dilution; format: cell-based; details: Enterococcus faecalis, clinically isolated strain, gram +
Source text: as §1, §6

A. calcoaceticus HNR904 = assay: Antibacterial activity, MIC by agar dilution; format: cell-based; details: Acinetobacter calcoaceticus, clinically isolated strain, gram -
Source text: as §1
(§7) Acinetobacter calcoaceticus (A. calcoaceticus)

A. calcoaceticus HNR916 = assay: Antibacterial activity, MIC by agar dilution; format: cell-based; details: Acinetobacter calcoaceticus, clinically isolated strain, gram -
Source text: as §1, §7

A. calcoaceticus HNR939 = assay: Antibacterial activity, MIC by agar dilution; format: cell-based; details: Acinetobacter calcoaceticus, clinically isolated strain, gram -
Source text: as §1, §7

[3] = test system: clinically isolated strains (HPC527, HPC308 and HPC292) of S aureus; assay: Comparison with analogous compounds: antibacterial activity (MIC) against clinically isolated strains of S. aureus; format: cell-based, Staphylococcus aureus; details: comparison to Tables 7 and 8
Experimental: Minimum inhibitory concentrations (MICs) of test compounds were determined by agar dilution procedure as described in the standard method of the Japan Society of Chemotherapy (Chemotherapy (Tokyo), 29,1, 76 (1981)). The strains employed were as follows:
All the data of the antibacterial activity, chromosomal aberration activity, phototoxicity and inducement of convulsions were obtained from the same tests methods as those described above. Among this, the data of the antibacterial activity shown in Tables 7 and 8 are MICs (minimum inhibitory concentrations) value against clinically isolated strains (HPC527, HPC308 and HPC292) of S aureus which is a representative gram-positive bacteria.

[4] = Tissue distribution after oral administration, HPLC; format: in vivo, Sprague-Dawley rats; details: for Kp: po, 5 mg/kg
Experimental: Seven-week-old male Sprague-Dawley rats were used. The test compounds were orally administered at a dose of 5 mg/kg to rats fasted overnight. At intervals of 0.083, 0.25, 0.5, 1, 2, 4, 6, 8, 12 and 24 h after administration, the rats were anesthetized with ether and blood samples were taken from the abdominal aorta. Plasma samples were obtained from the blood samples in the usual way. The lungs and kidneys were removed after collection of blood, and homogenated with 4 ml and 7 ml of 1 M HCl-citrate buffer (pH 4.0), respectively.
The concentration of the test compounds in the biological fluids (plasma and in each tissue tested) was determined by HPLC method. Hydrochloric acid and ether were added to 0.5 ml of plasma or 0.5 g of each tissue homogenate. The mixture was shaken and centrifuged. After the removal of the organic phase, aq. NaOH solution, phosphate buffer (pH 7.0) and chloroform were added to the aqueous phase. The mixture was shaken and centrifuged. The organic phase was then concentrated. The residue was dissolved and subjected to HPLC. The concentration of the test compounds in each biological fluid at Tmax (time of the maximum concentration in plasma) is shown in Table 6.

CHL cells [5] = details: 31th ICAAC, Abstract No. 1507 (1991); cited from earlier work
[6] = times higher than ciprofloxacin, at Tmax

Cc1c(N2C[C@@H](N)C3(CC3)C2)c(F)c(N)c2c(=O)c(C(=O)O)cn(C3CC3)c12 [Example 10, 5-Amino-7-((S)-7-amino-5-azaspiro[2.4]hept-5-yl)-1-cyclopropyl-6-fluoro-1,4-dihydro-8-methyl-4-oxoquinoline-3-carboxylic acid]
toxicity (chromosomal aberration), in words (CHL cells [1]): did not show | Incidence of MNPCEs [2]: 0.18% | Phototoxicity: number of animals with erythemas/number of animals tested (Male Hartley guinea pigs): 0/5 | MIC (S. aureus FDA 209P JC-1): 0.025 µg/mL | MIC (S. aureus HPC292): 1.56 µg/mL | MIC (S. aureus HPC308): 0.39 µg/mL | MIC (S. aureus HPC527): 0.025 µg/mL | MIC (E. coli NIHJ JC-2): 0.012 µg/mL (≈ 0.0311 µM) | MIC (K. pneumoniae HNR828): 3.13 µg/mL (≈ 8.1 µM) | MIC (K. pneumoniae HNR858): 0.2 µg/mL (≈ 0.518 µM) | MIC (K. pneumoniae HNR869): 1.56 µg/mL (≈ 4.04 µM) | MIC (K. pneumoniae PCI-602): 0.003 µg/mL (≈ 0.00776 µM) | MIC (S. marcescens HNR1544): 0.05 µg/mL (≈ 0.129 µM) | MIC (S. marcescens HNR1767): 6.25 µg/mL (≈ 16.2 µM) | MIC (S. marcescens HNR1792): 3.13 µg/mL (≈ 8.1 µM) | MIC (S. marcescens IAM 1184): 0.1 µg/mL (≈ 0.259 µM) | MIC (E. cloacae 963): 0.025 µg/mL (≈ 0.0647 µM) | MIC (E. cloacae HNR1939): 0.1 µg/mL (≈ 0.259 µM) | MIC (E. cloacae HNR1941): 3.13 µg/mL (≈ 8.1 µM) | MIC (E. cloacae HNR1946): 0.2 µg/mL (≈ 0.518 µM) | MIC (E. faecalis HPC948): 0.39 µg/mL | MIC (E. faecalis HPC975): 1.56 µg/mL | MIC (E. faecalis HPC984): 0.1 µg/mL | MIC (A. calcoaceticus HNR904): 1.56 µg/mL (≈ 4.04 µM) | MIC (A. calcoaceticus HNR916): 0.012 µg/mL (≈ 0.0311 µM) | MIC (A. calcoaceticus HNR939): 0.2 µg/mL (≈ 0.518 µM) | antibacterial activity compared with reference compound, in words [3]: higher antibacterial activity than the analogous reference compound B; also recorded: excellent antibacterial activity as potent as the analogous reference compound C; also recorded: much higher antibacterial activity than the analogous reference compound I | Tmax ([4]; plasma, rat, 5 mg/kg oral): 15 min | Cmax ([4]; plasma, rat, 5 mg/kg oral, read-out: Concentration in plasma at Tmax): 580 ng/mL | Concentration in kidney at Tmax ([4]; rat, 5 mg/kg oral): 8.5 µg/g | Concentration in lung at Tmax ([4]; rat, 5 mg/kg oral): 4.0 µg/g | Kp ([4]; rat, kidney, read-out: concentration ratio (tissue/plasma), kidney): 15 | Kp ([4]; rat, lung, read-out: concentration ratio (tissue/plasma), lung): 6.9 | a/b: concentration ratio (tissue/plasma) kidney, Example 10/ciprofloxacin [4, 6]: 4.2 | a/b: concentration ratio (tissue/plasma) lung, Example 10/ciprofloxacin [4, 6]: 8.6 | a/b: kidney concentration, Example 10/ciprofloxacin [4, 6]: 7.4 | a/b: lung concentration, Example 10/ciprofloxacin [4, 6]: 16

Cc1c(N2CC[C@H](N)C2)c(F)c(N)c2c(=O)c(C(=O)O)cn(C3CC3)c12.Cl [Example 12, 5-Amino-7-((S)-3-amino-1-pyrrolidinyl)-1-cyclopropyl-6-fluoro-1,4-dihydro-8-methyl-4-oxoquinoline-3-carboxylic acid hydrochloride]
toxicity (chromosomal aberration), in words (CHL cells [1]): did not show | Incidence of MNPCEs [2]: 0.16% | phototoxicity, in words (Male Hartley guinea pigs): did not show | Phototoxicity: number of animals with erythemas/number of animals tested (Male Hartley guinea pigs): 0/5 | MIC (S. aureus FDA 209P JC-1): 0.025 µg/mL | MIC (S. aureus HPC292): 1.56 µg/mL | MIC (S. aureus HPC308): 0.78 µg/mL | MIC (S. aureus HPC527): 0.025 µg/mL | MIC (E. coli NIHJ JC-2): 0.025 µg/mL | MIC (K. pneumoniae HNR828): 3.13 µg/mL | MIC (K. pneumoniae HNR858): 0.2 µg/mL | MIC (K. pneumoniae HNR869): 1.56 µg/mL | MIC (K. pneumoniae PCI-602): 0.006 µg/mL | MIC (S. marcescens HNR1544): 0.05 µg/mL | MIC (S. marcescens HNR1767): 12.5 µg/mL | MIC (S. marcescens HNR1792): 1.56 µg/mL | MIC (S. marcescens IAM 1184): 0.1 µg/mL | MIC (E. cloacae 963): 0.025 µg/mL | MIC (E. cloacae HNR1939): 0.2 µg/mL | MIC (E. cloacae HNR1941): 6.25 µg/mL | MIC (E. cloacae HNR1946): 0.2 µg/mL | MIC (E. faecalis HPC948): 0.39 µg/mL | MIC (E. faecalis HPC975): 1.56 µg/mL | MIC (E. faecalis HPC984): 0.1 µg/mL | MIC (A. calcoaceticus HNR904): 12.5 µg/mL | MIC (A. calcoaceticus HNR916): 0.05 µg/mL | MIC (A. calcoaceticus HNR939): 0.78 µg/mL | antibacterial activity compared with reference compound, in words ([3]; hydrochloride): much higher antibacterial activity than the analogous reference compound E; also recorded: higher antibacterial activity than the analogous reference compound F; also recorded: much higher antibacterial activity than the analogous reference compound I

Cc1c(N2C[C@@H](N)C3(CC3)C2)c(F)cc2c(=O)c(C(=O)O)cn(C3CC3)c12 [Reference Compound C, 7-((S)-7-amino-5-azaspiro[2.4]hept-5-yl)-1-cyclopropyl-6-fluoro-1,4-dihydro-8-methyl-4-oxoquinoline-3-carboxylic acid]
toxicity (chromosomal aberration), in words (CHL cells [1]): observed | phototoxicity, in words (Male Hartley guinea pigs): no phototoxicity | death of guinea pigs (Male Hartley guinea pigs; phototoxicity test): death of one guinea pig out of five | chromosomal aberrational activity, in words (CHL cells [5]): potent chromosomal aberrational activity
